This assay has as its system hiPSC single-cell survival, ATPlite luminescence. Briefly: enhancers of single-cell hiPSC survival, SAR follow-up, luminescence (AID 651676).

Calls of active or inactive are those of the source.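 The calls were made as follows: active = EC50 concentration giving half the maximal stem cell survival boost at or below 20 µM; inactive = the rest.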

Turning to `O=C(Nc1nc(-c2ccncc2)cs1)C1COc2ccccc2O1` (stereo not drawn), the EC50 was 3.63 µM.

As for `O=C(Nc1ccncc1)c1cc(S(=O)(=O)N2CCOCC2)ccc1Cl`, the EC50 is 26.3 µM (inactive).

Consider `COc1ccc(CS(=O)(=O)/C(Cl)=C(/Cl)C(=O)Nc2ccc(OC)nc2)cc1`, for which the EC50 is 14.1 µM.

As to `CC(C)n1c(O)c(C2c3cc(Cl)ccc3Oc3[nH]c(=O)n(C(C)C)c(=O)c32)c(=O)[nH]c1=O` (stereo not drawn), the EC50 was 42.3 µM (inactive).

With `COc1ccc(NC(=O)/C(Cl)=C(/Cl)S(=O)(=O)Cc2ccc(C)cc2)cn1`, the EC50 was 16.6 µM.

For `Cn1c(=O)c2c(ncn2CC(=O)NCc2cccnc2)n(C)c1=O`, the EC50 is > 80 µM (inactive).

Take `O=C(OCn1ncc(Cl)c(Cl)c1=O)c1cccc(C(F)(F)F)c1`: the EC50 was 21.6 µM (inactive).

For `O=C(Nc1ccncc1)c1cc(S(=O)(=O)N2CCCC2)ccc1Cl`, the EC50 was 20.6 µM (inactive).

Consider `NC(=O)c1ccc(NC(=O)CCC(=O)c2cccs2)cc1`, for which the EC50 is 10.5 µM.

For `O=C(OCn1ncc(Br)c(Br)c1=O)c1ccccc1Cl`, the EC50 was 6.27 µM.

`CC(C)NC(=O)c1ccc2c(c1)S(=O)(=O)c1ccccc1C2=O`: the EC50 is > 80 µM (inactive).

For `COc1ccc(Cn2c(O)c(C=NCCCn3ccnc3)c(=O)[nH]c2=O)cc1`, the EC50 was > 80 µM (inactive).

Turning to `O=S(=O)(c1cccc2cnccc12)N1CCCNCC1`, the concentration giving a half-maximal response (EC50) was 7.12 µM.

In general, EC50 refers to the concentration needed to bring the measured effect to its halfway point.
